# Laboratory results as given in patent US20240239752A1, “BICYCLIC HETEROAROMATIC INHIBITORS OF KLK5” (BioCryst Pharmaceuticals, Inc., priority 2021, published 2024).
# Molecular target: T1, recombinant human KLK5 (Homo sapiens, UniProt Q9Y337)
# T1 construct: purchased Novoprotein or R&D Systems C415 or 1108-SE
# T1 sequence (Q9Y337 23-293): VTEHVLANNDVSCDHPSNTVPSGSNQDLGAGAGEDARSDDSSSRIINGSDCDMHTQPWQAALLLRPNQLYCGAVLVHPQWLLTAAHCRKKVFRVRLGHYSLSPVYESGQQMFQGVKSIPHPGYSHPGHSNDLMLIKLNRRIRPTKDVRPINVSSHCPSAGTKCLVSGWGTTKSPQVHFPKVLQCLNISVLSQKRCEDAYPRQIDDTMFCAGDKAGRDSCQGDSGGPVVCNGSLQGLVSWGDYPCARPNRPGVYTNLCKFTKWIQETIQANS
# Experiment: Kallikrein (KLK) 5 enzymatic assay (Boc-VPR-AMC fluorogenic substrate)
# Format: biochemical
# Details: recombinant human KLK5 0.1 μg/well, Boc-VPR-AMC 100 μM, pH 7.5, room temperature, 1% DMSO; tested a minimum of three times
# Procedure, shortened: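 Fluorogenic rate assay at pH 7.5 (0.1 M NaH2PO4, 1% DMSO, room temperature), run at least three times per compound. Compound was premixed with 0.1 μg/well recombinant human KLK5 before adding 100 μM Boc-VPR-AMC; AMC release was read at ex 380/em 460 nm, and IC50 derived from inhibition of rate vs DMSO control.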
row,Structure (SMILES),IC50
1,"CC(C)n1nc(COc2ccccc2CC(=O)O)c2cc(-c3cccc4c3OCC4N)ccc21 (stereo not shown) [Compound 212c, 2-(2-((5-(3-amino-2,3-dihydrobenzofuran-7-yl)-1-isopropyl-1H-indazol-3-yl)methoxy)phenyl)acetic acid]",1000 to 10000 nM
2,"CC(C)n1nc(COc2ccccc2CC(=O)O)c2cc(-c3cccc4c3OCCC4N)ccc21 (stereo not shown) [Compound 213c, 2-(2-((5-(4-aminochroman-8-yl)-1-isopropyl-1H-indazol-3-yl)methoxy)phenyl)acetic acid]",> 10000 nM
3,"CC(C)n1nc(COc2ccccc2CC(=O)O)c2cc(-c3ccc4c(c3)C(N)CCO4)ccc21 (stereo not shown) [Compound 214c, 2-(2-((5-(4-aminochroman-6-yl)-1-isopropyl-1H-indazol-3-yl)methoxy)phenyl)acetic acid]",> 10000 nM
4,"Nc1nccc2ccc(-c3ccc4c(c3)[C@H](Oc3ccccc3CC(=O)O)CC4)cc12 [Compound 215d, (R)-2-(2-((6-(1-aminoisoquinolin-7-yl)-2,3-dihydro-1H-inden-1-yl)oxy)phenyl)acetic acid]",< 1000 nM
5,"Nc1nccc2c(-c3ccc4c(c3)[C@H](Oc3ccccc3CC(=O)O)CC4)cccc12 [Compound 216b, (R)-2-(2-((6-(1-aminoisoquinolin-5-yl)-2,3-dihydro-1H-inden-1-yl)oxy)phenyl)acetic acid]",< 1000 nM
6,"Cn1c(=O)n(Cc2ccccc2CC(=O)O)c2cc(-c3ccc4ccnc(N)c4c3)ccc21 [Compound 217e, 2-(2-((6-(1-aminoisoquinolin-7-yl)-3-methyl-2-oxo-2,3-dihydro-1H-benzo[d]imidazol-1-yl)methyl)phenyl)acetic acid]",> 10000 nM
7,"Cn1c(=O)n(Cc2ccccc2CC(=O)O)c2cc(-c3cccc4c(N)nccc34)ccc21 [Compound 218b, 2-(2-((6-(1-aminoisoquinolin-5-yl)-3-methyl-2-oxo-2,3-dihydro-1H-benzo[d]imidazol-1-yl)methyl)phenyl)acetic acid]",1000 to 10000 nM
8,"Cn1c(=O)n(Cc2ccccc2CC(=O)O)c2cc(-c3cccc(C(=N)N)c3)ccc21 [Compound 219c, 2-(2-((6-(3-carbamimidoylphenyl)-3-methyl-2-oxo-2,3-dihydro-1H-benzo[d]imidazol-1-yl)methyl)phenyl)acetic acid]",1000 to 10000 nM
9,"Cn1c(=O)n(Cc2ccccc2CC(=O)O)c2cc(-c3cccc(C(N)=O)c3)ccc21 [Compound 219d, 2-(2-((6-(3-carbamoylphenyl)-3-methyl-2-oxo-2,3-dihydro-1H-benzo[d]imidazol-1-yl)methyl)phenyl)acetic acid]",1000 to 10000 nM
10,"Cc1cc2c(-c3ccc4c(c3)c(COc3ccccc3CC(=O)O)nn4C(C)C)cccc2c(N)n1 [Compound 220d, 2-(2-((5-(1-amino-3-methylisoquinolin-5-yl)-1-isopropyl-1H-indazol-3-yl)methoxy)phenyl)acetic acid]",1000 to 10000 nM
11,"Nc1nccc2ccc(-c3ccc4c(c3)[C@@H](Oc3ccccc3CC(=O)O)CC4)cc12 [Compound 221d, (S)-2-(2-((6-(1-aminoisoquinolin-7-yl)-2,3-dihydro-1H-inden-1-yl)oxy)phenyl)acetic acid]",1000 to 10000 nM
12,"Nc1nccc2c(-c3ccc4c(c3)[C@@H](Oc3ccccc3CC(=O)O)CC4)cccc12 [Compound 222b, (S)-2-(2-((6-(1-aminoisoquinolin-5-yl)-2,3-dihydro-1H-inden-1-yl)oxy)phenyl)acetic acid]",1000 to 10000 nM
13,"Nc1nccc2c(-c3ccc4c(c3)c(COc3ccccc3CC(=O)O)nn4C3CCCC3)cccc12 [Compound 223b, 2-(2-((5-(1-aminoisoquinolin-5-yl)-1-cyclopentyl-1H-indazol-3-yl)methoxy)phenyl)acetic acid]",< 1000 nM
14,"N=C(N)c1cccc(-c2ccc3c(c2)c(COc2ccccc2CC(=O)O)nn3C2CCCC2)c1 [Compound 224b, 2-(2-((5-(3-carbamimidoylphenyl)-1-cyclopentyl-1H-indazol-3-yl)methoxy)phenyl)acetic acid]",< 1000 nM
15,"Nc1nccc2c(-c3ccc4c(c3)c(COc3ccccc3CC(=O)O)nn4C3CCCCC3)cccc12 [Compound 225b, 2-(2-((5-(1-aminoisoquinolin-5-yl)-1-cyclohexyl-1H-indazol-3-yl)methoxy)phenyl)acetic acid]",< 1000 nM
16,"N=C(N)c1cccc(-c2ccc3c(c2)c(COc2ccccc2CC(=O)O)nn3C2CCCCC2)c1 [Compound 226b, 2-(2-((5-(3-carbamimidoylphenyl)-1-cyclohexyl-1H-indazol-3-yl)methoxy)phenyl)acetic acid]",< 1000 nM
17,"N=C(N)c1cccc(-c2cc(OCc3ccccn3)c3occ(COc4ccccc4CC(=O)O)c3c2)c1 [Compound 227i, 2-(2-((5-(3-carbamimidoylphenyl)-7-(pyridin-2-ylmethoxy)benzofuran-3-yl)methoxy)phenyl)acetic acid]",< 1000 nM

row,Structure (SMILES),IC50
1,"N=C(N)c1cccc(-c2cc(OCc3nccs3)c3occ(COc4ccccc4CC(=O)O)c3c2)c1 [Compound 228f, 2-(2-((5-(3-carbamimidoylphenyl)-7-(thiazol-2-ylmethoxy)benzofuran-3-yl)methoxy)phenyl)acetic acid]",< 1000 nM
2,"COc1cc(-c2ccc3ccnc(N)c3c2)cc2c(COc3ccccc3CC(=O)O)coc12 [Compound 229f, 2-(2-((5-(1-aminoisoquinolin-7-yl)-7-methoxybenzofuran-3-yl)methoxy)phenyl)acetic acid]",1000 to 10000 nM
3,"COc1cc(-c2ccc3ccnc(N)c3c2)cc2c(COc3cc(C)ccc3CC(=O)O)coc12 [Compound 230d, 2-(2-((5-(1-aminoisoquinolin-7-yl)-7-methoxybenzofuran-3-yl)methoxy)-4-methylphenyl)acetic acid]",1000 to 10000 nM
4,"Nc1nccc2ccc(-c3cc4c(COc5ccccc5CC(=O)O)cccc4o3)cc12 [Compound 231f, 2-(2-((2-(1-aminoisoquinolin-7-yl)benzofuran-4-yl)methoxy)phenyl)acetic acid]",1000 to 10000 nM
5,"Nc1nccc2c(-c3cc4c(COc5ccccc5CC(=O)O)cccc4o3)cccc12 [Compound 232b, 2-(2-((2-(1-aminoisoquinolin-5-yl)benzofuran-4-yl)methoxy)phenyl)acetic acid]",> 10000 nM
6,"Cc1cc(-c2ccc3ccnc(N)c3c2)cc2c(COc3ccccc3CC(=O)O)coc12 [Compound 233f, 2-(2-((5-(1-aminoisoquinolin-7-yl)-7-methylbenzofuran-3-yl)methoxy)phenyl)acetic acid]",1000 to 10000 nM
7,"COc1ccc(CC(=O)O)c(OCc2coc3c(OC)cc(-c4ccc5ccnc(N)c5c4)cc23)c1 [Compound 234c, 2-(2-((5-(1-aminoisoquinolin-7-yl)-7-methoxybenzofuran-3-yl)methoxy)-4-methoxyphenyl)acetic acid]",> 10000 nM
8,"COc1cc(-c2cccc3c(N)nccc23)cc2c(COc3ccccc3CC(=O)O)coc12 [Compound 235b, 2-(2-((5-(1-aminoisoquinolin-5-yl)-7-methoxybenzofuran-3-yl)methoxy)phenyl)acetic acid]",1000 to 10000 nM
9,"COc1cc(-c2cccc(C(=N)N)c2)cc2c(COc3ccccc3CC(=O)O)coc12 [Compound 236b, 2-(2-((5-(3-carbamimidoylphenyl)-7-methoxybenzofuran-3-yl)methoxy)phenyl)acetic acid]",< 1000 nM
10,"COc1cc(-c2ccc3ccnc(N)c3c2)cc2c(COc3c(C)cccc3CC(=O)O)coc12 [Compound 237c, 2-(2-((5-(1-aminoisoquinolin-7-yl)-7-methoxybenzofuran-3-yl)methoxy)-3-methylphenyl)acetic acid]",> 10000 nM
11,"COc1c(C(=N)N)cccc1-c1ccc2c(c1)c(COc1ccccc1CC(=O)O)nn2C1CCC1 [Compound 238d, 2-(2-((5-(3-carbamimidoyl-2-methoxyphenyl)-1-cyclobutyl-1H-indazol-3-yl)methoxy)phenyl)acetic acid]",< 1000 nM
12,"Cc1cccc(OCc2nn(C3CCCC3)c3ccc(-c4cccc5c(N)nccc45)cc23)c1CC(=O)O [Compound 239f, 2-(2-((5-(1-aminoisoquinolin-5-yl)-1-cyclopentyl-1H-indazol-3-yl)methoxy)-6-methylphenyl)acetic acid]",< 1000 nM
13,"Cc1cccc(OCc2nn(C3CCCC3)c3ccc(-c4ccc5ccnc(N)c5c4)cc23)c1CC(=O)O [Compound 240b, 2-(2-((5-(1-aminoisoquinolin-7-yl)-1-cyclopentyl-1H-indazol-3-yl)methoxy)-6-methylphenyl)acetic acid]",< 1000 nM
14,"CC(C(=O)O)c1ccccc1OCc1nn(C2CCOC2)c2ccc(-c3cccc4c(N)nccc34)cc12 (stereo not shown) [Compound 241f, 2-(2-((5-(1-aminoisoquinolin-5-yl)-1-(tetrahydrofuran-3-yl)-1H-indazol-3-yl)methoxy)phenyl)propanoic acid]",< 1000 nM
15,"CC(C(=O)O)c1ccccc1OCc1nn(C2CCOC2)c2ccc(-c3ccc4ccnc(N)c4c3)cc12 (stereo not shown) [Compound 242b, 2-(2-((5-(1-aminoisoquinolin-7-yl)-1-(tetrahydrofuran-3-yl)-1H-indazol-3-yl)methoxy)phenyl)propanoic acid]",< 1000 nM
16,"Nc1nccc2c(-c3ccc4c(c3)c(COc3ccccc3CC(=O)O)nn4[C@H]3CCOC3)cccc12 [Compound 243h, (S)-2-(2-((5-(1-aminoisoquinolin-5-yl)-1-(tetrahydrofuran-3-yl)-1H-indazol-3-yl)methoxy)phenyl)acetic acid]",< 1000 nM
17,"Nc1nccc2ccc(-c3ccc4c(c3)c(COc3ccccc3CC(=O)O)nn4[C@H]3CCOC3)cc12 [Compound 244b, (S)-2-(2-((5-(1-aminoisoquinolin-7-yl)-1-(tetrahydrofuran-3-yl)-1H-indazol-3-yl)methoxy)phenyl)acetic acid]",< 1000 nM
